Laboratory results taken from US20100311586A1, “HERBICIDAL COMBINATION” (Bayer CorpScience AG, priority 2007, published 2010).
Where “and” joins values, the source holds several entries; their conditions need not be identical. Equal entries are not always repeated.

Test system: Polygonum convolvulus
Test: Post-emergence action against weeds, greenhouse pot test, visual scoring
Type: in vivo
Details: 11 days after application, 0%=no control, 100%=complete control
Procedure: Seeds or rhizome pieces of monocotyledonous and dicotyledonous weeds were placed in sandy loam soil in plastic pots, covered with soil and cultivated in a greenhouse under good growth conditions. Three weeks after sowing, the test plants were treated at the 2- to 4-leaf stage. The compounds according to the invention, formulated as wettable powders or as emulsion concentrates, were sprayed onto the green parts of the plants in various dosages at a water application rate of 100 to 800 I/ha (converted). After the test plants had been left to stand in the greenhouse for 10 to 28 days under optimum growth conditions, the effect of the preparations was scored visually in comparison to untreated controls.
0%=no control 100%=complete control

Nc1c([N+](=O)[O-])ccc(Oc2ccccc2)c1Cl [Compound B1-2, aclonifen]
Polygonum convolvulus Control in % (100 g of ai/ha): 20%

Cc1cc(Cl)ccc1O[C@H](C)C(=O)O [Compound B4-5, mecoprop-P]
Polygonum convolvulus Control in % (200 g of ai/ha): 50%

O=C(O)COc1ccc(Cl)cc1Cl [Compound B5-2, 2,4-D]
Polygonum convolvulus Control in % (200 g of ai/ha): 55%

Cc1cc(Cl)ccc1OCC(=O)O [Compound B5-3, MCPA]
Polygonum convolvulus Control in % (200 g of ai/ha): 50%

C#CCOC(=O)[C@@H](C)Oc1ccc(Oc2ncc(Cl)cc2F)cc1 [Compound B7-1, clodinafop-propargyl]
Polygonum convolvulus Control in % (20 g of ai/ha): 5%

COC(=O)C(C)Oc1ccc(Oc2ccc(Cl)cc2Cl)cc1 (centres unmarked) [Compound B7-3, diclofop-methyl]
Polygonum convolvulus Control in % (1000 g of ai/ha): 15%

CCOC(=O)[C@@H](C)Oc1ccc(Oc2nc3ccc(Cl)cc3o2)cc1 [Compound B7-5, fenoxaprop-P-ethyl]
Polygonum convolvulus Control in % (45 g of ai/ha): 35%

sodium salt of 2-iodo-N-[(4-methoxy-6-methyl-1,3,5-triazin-2-yl)carbamoyl]benzenesulfonamide [Compound A-2]
Polygonum convolvulus Control in % (2.5 g of ai/ha): 10% and 20%
